Read-outs that look alike come from different tables or passages of the source.
Tests used:
CCK receptor (pancreas) = target: T1, CCK receptor (pancreas) (Rattus norvegicus, UniProt P30551); assay: CCK Receptor Binding (Pancreas): inhibition of ^125 I-CCK-33 binding; design: species or system Male Sprague-Dawley rats; settings: rat pancreas membranes, ^125 I-CCK-33, 37° C., 30 minutes
T1 construct: The whole pancreas was dissected free of fat tissue and was homogenized; from tissue; host or cells: rat pancreas membranes (Sprague-Dawley)
T1 sequence (P30551 1-444): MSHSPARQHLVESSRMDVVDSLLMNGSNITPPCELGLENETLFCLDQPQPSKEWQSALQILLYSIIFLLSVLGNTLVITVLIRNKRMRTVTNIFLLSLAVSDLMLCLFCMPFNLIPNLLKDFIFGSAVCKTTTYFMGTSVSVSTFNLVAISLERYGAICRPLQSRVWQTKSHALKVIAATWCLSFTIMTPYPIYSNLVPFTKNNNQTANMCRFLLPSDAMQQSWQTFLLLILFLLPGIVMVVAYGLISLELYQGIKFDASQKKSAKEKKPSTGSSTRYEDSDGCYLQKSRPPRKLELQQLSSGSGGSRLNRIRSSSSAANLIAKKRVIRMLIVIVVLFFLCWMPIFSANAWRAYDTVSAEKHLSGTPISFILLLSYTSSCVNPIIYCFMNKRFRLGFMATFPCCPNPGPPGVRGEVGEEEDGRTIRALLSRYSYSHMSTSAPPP
Experimental: 1. CCK Receptor Binding (Pancreas)
CCK-33 was radiolabeled with ^125 I-Bolton Hunter reagent (2000 Ci/mmole) as described by Sankara et al. (J. Biol. Chem. 254: 9349-9351, 1979). Receptor binding was performed according to Innis and Snyder (Proc. Natl. Acad. Sci. 77: 6917-6921, 1980) with the minor modification of adding the additional protease inhibitors, phenylmethane sulfonyl fluoride and o-phenanthroline.
Male Sprague-Dawley rats (200-350 g) were sacrificed by decapitation. The whole pancreas was dissected free of fat tissue and was homogenized in 20 volumes of ice-cold 50 mM, Tris HCl (pH 7.7 at 25° C.) with a Brinkmann Polytron PT 10. The homogenates were centrifuged at 48,000 g for 10 min. Pellets were resuspended in Tris Buffer, centrifuged as above and resuspended in 200 volumes of binding assay buffer (50 mM Tris HCl, pH 7.7 at 25° C., 5 mM dithiothrietol, 0.1 mM bacitracin, 1.2 mM phenylmethane sulfonyl fluoride and 0.5 mM o-phenanthroline). […] All assays were run in duplicate or triplicate. The reaction mixtures were incubated at 37° C. for 30 minutes and centrifuged in a Beckman Microfuge (4 minutes) immediately after adding 1 ml of ice-cold incubation buffer. The supernatant was aspirated and discarded, pellets were counted with a Beckman gamma 5000. For Scatchard analysis (Ann. N.Y. Acad. Sci. 51: 660, 1949), ^125 I-CCK-33 was progressively diluted with increasing concentrations of CCK-33.

[1] = target: T2, Gastrin receptor (gastric glands) (Cavia porcellus, UniProt H0VZC5); assay: Gastrin Receptor Binding in Guinea Pig Gastric Glands; design: species or system guinea pig (male Hartley); settings: 25° C., 30 minutes
T2 construct: The washed guinea pig gastric glands prepared as above were resuspended; from tissue; host or cells: guinea pig gastric mucosal glands (male Hartley)
T2 sequence (H0VZC5 1-426): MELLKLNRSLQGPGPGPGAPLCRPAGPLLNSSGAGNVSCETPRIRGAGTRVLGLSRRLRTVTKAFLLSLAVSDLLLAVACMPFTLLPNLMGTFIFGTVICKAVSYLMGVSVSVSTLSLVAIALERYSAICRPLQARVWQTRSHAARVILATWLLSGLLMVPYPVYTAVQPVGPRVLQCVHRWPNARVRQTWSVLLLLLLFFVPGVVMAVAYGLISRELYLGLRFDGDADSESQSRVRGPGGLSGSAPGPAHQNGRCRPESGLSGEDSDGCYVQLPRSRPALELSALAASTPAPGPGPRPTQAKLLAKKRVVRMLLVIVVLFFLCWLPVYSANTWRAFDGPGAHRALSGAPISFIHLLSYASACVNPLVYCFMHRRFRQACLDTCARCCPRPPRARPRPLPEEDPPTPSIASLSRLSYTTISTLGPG

[2] = target: T3, CCK receptor (brain, cerebral cortex) (Cavia porcellus, UniProt H0VZC5); assay: biochemical; type: binding, Male Hartley guinea pigs; settings: guinea pig cerebral cortex, ^125 I-CCK-33, 25° C., 2 hours
T3 construct: Cerebral cortex was dissected and used as a receptor source; from tissue; host or cells: guinea pig cerebral cortex membranes (male Hartley)
T3 sequence (H0VZC5 1-426): T2 sequence (H0VZC5 1-426)
How it was run: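 Guinea pig cerebral cortex homogenate as receptor source, with radiolabeled CCK-33 in HEPES buffer containing MgCl2, bacitracin, EGTA and 0.4% BSA. Incubation 2 h at 25°C; bound ligand pelleted by centrifugation and gamma-counted.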

[3] = read-out: IC50 ^125 I-CCK Pancreas
[4] = ^125 I-gastrin, read-out: IC50 ^125 I-Gastrin Gastric Glands
[5] = read-out: IC50 ^125 I-CCK Brain
[6] = IC50 ^125 I-Gastrin Gastric Glands

| Compound | IC50 (CCK receptor (pancreas); [3]) [µM] | IC50 [1, 4] [µM] | IC50 [2, 5] [µM] | IC50 (CCK receptor (pancreas); IC50 ^125 I-CCK Pancreas) [µM] | IC50 [1, 6] [µM] | IC50 ([2]; IC50 ^125 I-CCK Brain) [µM] |
| --- | --- | --- | --- | --- | --- | --- |
| 1-(2-Cyanoethyl)-1,3-dihydro-5-(2-fluorophenyl)-3(R)-(3'-indolyl)methyl-2H- 1,4-benzodiazepin-2-one (A, 85%) and 1-(2-cyanoethyl)-1,3-dihydro-5-(2-fluorophenyl)-3(R)-[1'-(2-cyanoethyl)-3'-indolyl]-methyl-2H-1,4-benzodiazpin-2-one (B, 15%) [Example 102] | 0.7 | 12.8 | 30 |  |  |  |
| CC(C)(C)OC(=O)N[C@@H](Cc1c[nH]c2ccccc12)C(=O)NC1N=C(c2ccccc2)c2ccccc2NC1=O (mixture of isomers) [Example 77, 3(RS)-(Boc-L-tryptophanyl)amino-1,3-dihydro-5-phenyl-2H-1,4-benzodiazepin-2-one] |  |  |  | 6 | 250 | 20 |
| CC(C)(C)OC(=O)N[C@H](Cc1c[nH]c2ccccc12)C(=O)NC1N=C(c2ccccc2)c2ccccc2NC1=O (mixture of isomers) [Example 96, 3(RS)-(BOC-D-tryptophanyl)amino-1,3-dihydro-5-phenyl-2H-1,4-benzodiazepin-2-one] |  |  |  | 17 | 500 | > 100 |
| CN1C(=O)C(C(O)c2c[nH]c3ccccc23)N=C(c2ccccc2)c2ccccc21 (racemic) [Example 47, 1,3-Dihydro-3(RS)-[1-hydroxy-1-(3'-indolyl)]methyl-1-methyl-5-phenyl-2H-1,4-benzodiazepin-2-one] |  | 24 | 40 | 24 |  |  |
| CN1C(=O)C(C(=O)c2ccsc2)N=C(c2ccccc2)c2ccccc21 (racemic) [Example 48, 1,3-Dihydro-1-methyl-5-phenyl-3-(RS)-(3-thienoyl)-2H-1,4-benzodiazepin-2-one] |  | 8.4 | 33 | 54 |  |  |
| CN1C(=O)C(C(O)c2ccsc2)N=C(c2ccccc2)c2ccccc21 (racemic) [Example 49, 1,3-Dihydro-3-(RS)-[1-hydroxy-1-(3-thienyl)]methyl-1-methyl-5-phenyl-2H-1,4-benzodiazepin-2-one] |  | 34 | 100 | > 100 |  |  |
| CN1C(=O)[C@@H](Cc2cn(C)c3ccccc23)N(C(=O)c2ccc(Cl)cc2)C(c2ccccc2F)c2ccccc21 (stereo partly drawn) [Example 27a, 4-(p-Chlorobenzoyl)-5-(2-fluorophenyl)-3(R)-[3'-(1'-methylindolyl)-methyl]-1-methyl-1,3,4,5-tetrahydro-2H-1,4-benzodiazepin-2-one] | > 100 |  | > 100 |  |  |  |
| CC(=O)N1C(c2ccccc2F)c2ccccc2N(C)C(=O)[C@H]1Cc1cn(C)c2ccccc12 (stereo partly drawn) [Example 27b, 4-acetyl-5-(2-fluorophenyl)-3(R)-[3'-(1'-methylindolyl)-methyl]-1-methyl-1,3,4,5-tetrahydro-2H-1,4-benzodiazepin-2-one] | 100 |  | > 100 |  |  |  |
| O=C1Nc2ccc(Cl)cc2C(c2ccccc2Cl)=N[C@@H]1Cc1c[nH]c2ccccc12 [Example 28, 7-Chloro-5-(2-chlorophenyl)-1,3-dihydro-3(R)-(3'-indolyl)methyl-2H-1,4-benzodiazepin-2-one] |  |  |  | 5 |  | > 100 |
| O=C1[C@@H](Cc2c[nH]c3ccccc23)N=C(c2ccccc2)c2cc(Cl)ccc2N1Cc1ccccc1 [Example 30, 1-Benzyl-7-chloro-1,3-dihydro-3(R)-(3'-indolyl) methyl-5-phenyl-2H-1,4-benzodiazepin-2-one] |  |  |  | > 100 |  | > 100 |
| CN1C(=O)[C@@H](Cc2c[nH]c3ccccc23)N=C(c2ccccc2)c2cc(Cl)ccc21 [Example 31, 7-Chloro-1,3-Dihydro-3(R)-(3'-indolyl)methyl-1-methyl-5-phenyl-2H-1,4-benzodiazepin-2-one] |  |  |  | 1.4 |  | > 100 |
| O=C1[C@H](Cc2c[nH]c3ccccc23)N=C(c2ccccc2)c2cc(Cl)ccc2N1Cc1ccccc1 [Example 33, 1-Benzyl-7-chloro-1,3-dihydro-3(S)-(3'-indolyl) methyl-5-phenyl-2H-1,4-benzodiazepin-2-one] |  |  |  | > 100 |  | > 100 |
| S=C1Nc2ccc(Cl)cc2C(c2ccccc2)=N[C@@H]1Cc1c[nH]c2ccccc12 [Example 34, 7-Chloro-1,3-dihydro-3(R)-(3'-indolyl)methyl-5-phenyl-2H-1,4-benzodiazepin-2-thione] |  |  |  | 4.5 |  | > 100 |
| CCOC(=O)CN1C(=O)[C@@H](Cc2c[nH]c3ccccc23)N=C(c2ccccc2F)c2ccccc21 [Example 42, 1,3-Dihydro-1-(ethoxycarbonylmethyl)-5-(2-fluorophenyl)-3(R)-(3'-indolyl)methyl-2H-1,4-benzodiazepin-2-one] |  |  |  | 8.3 |  | > 100 |
| CN1C(=O)[C@@H](Cc2cn(Cc3ccccc3)c3ccccc23)N=C(c2ccccc2)c2cc(Cl)ccc21 [Example 46, 7-Chloro-1,3-dihydro-3(R)-[3'(1'-benzylindolyl)methyl]1-methyl-5-phenyl-2H-1,4-benzodiazepin-2-one] |  |  |  | > 100 |  | > 100 |
| CCCCCc1ccc(C(=O)N[C@H]2N=C(c3ccccc3)c3ccccc3N(C)C2=O)cc1 [Example 201] | 0.25 | > 100 |  |  |  |  |
| CCCCCc1ccc(C(=O)N[C@@H]2N=C(c3ccccc3)c3ccccc3N(C)C2=O)cc1 [Example 206, (R)-N-(2,3-Dihydro-1-methyl-2-oxo-5-phenyl-1H-1,4-benzodiazepin-3-yl)-4-pentylbenzamide] | 12 | > 100 |  |  |  |  |
| CN1CC(CC2N=C(c3ccccc3)c3ccccc3N(C)C2=O)c2ccccc21 (stereo not drawn) [Example 211, 3-((2,3-Dihydro-1-methyl-1H-indol-3-yl)methyl)-1,3-dihydro-1-methyl-5-phenyl-2H-1,4-benzodiazepin-2-one] |  |  |  | 13 |  | 93 |
| CN1C(=O)C(NC(=O)c2ccc(C(F)(F)F)cc2)N=C(c2ccccc2F)c2ccccc21 (stereo not drawn) [Example 218, N-(5-(2-Fluorophenyl)-2,3-dihydro-1-methyl-2-oxo-1H-1,4-benzodiazepin-3-yl)-4-(trifluoromethyl)-benzamide] |  | 1.8 |  | 0.0026 |  |  |
| Cc1cccc(NC(=O)NC2N=C(c3ccccc3)c3ccccc3N(C)C2=O)c1 (stereo not drawn) [Example 263, N-(2,3-Dihydro-1-methyl-2-oxo-5-phenyl-1H-1,4-benzodiazepin-3-yl)-N'-(3-methylphenyl)-urea] | 0.0081 | 0.0031 |  |  |  |  |
| Cc1cccc(NC(=O)N[C@@H]2N=C(c3ccccc3)c3ccccc3N(C)C2=O)c1 [Example 281, (R)-N-(2,3-Dihydro-1-methyl-2-oxo-5-phenyl-1H-1,4-benzodiazepin-3-yl)-N'-(3-methylphenyl)-urea] |  | 0.00066 |  | 1.4 |  |  |
